The record followed here is ChEMBL document CHEMBL1156590, “Stereoselectivity of binding of alpha-(N-benzylamino)benzylphosphonic acids to prostatic acid phosphatase” (Bioorg Med Chem Lett, 2008).

pIC50: −log10 of the molar value.

The target of this assay is T1, Prostatic acid phosphatase (Homo sapiens, UniProt P15309).
T1 sequence (P15309 whole entry): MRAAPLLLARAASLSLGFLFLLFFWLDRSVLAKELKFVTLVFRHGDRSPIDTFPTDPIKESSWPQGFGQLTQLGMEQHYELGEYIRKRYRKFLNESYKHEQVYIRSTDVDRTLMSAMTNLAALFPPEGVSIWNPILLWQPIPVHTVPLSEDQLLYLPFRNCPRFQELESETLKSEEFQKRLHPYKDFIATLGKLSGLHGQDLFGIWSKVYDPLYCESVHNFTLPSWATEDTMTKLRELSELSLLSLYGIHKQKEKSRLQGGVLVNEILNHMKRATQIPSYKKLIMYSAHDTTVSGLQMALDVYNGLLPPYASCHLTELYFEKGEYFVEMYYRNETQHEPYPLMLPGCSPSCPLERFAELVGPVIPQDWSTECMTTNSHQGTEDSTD
The experiment in a line: Inhibition of human prostatic acid phosphatase.
Broadly, the pIC50 is the IC50 on a negative log10 scale, so that one unit is a factor of ten. A high value points to a small IC50. `C[C@H](N[C@@H](c1ccccc1)P(=O)(O)O)c1ccccc1` showed a pIC50 of 5.92.
The figure for `C[C@@H](N[C@H](c1ccccc1)P(=O)(O)O)c1ccccc1` is 7.59; for `COc1ccc([C@@H](N[C@H](C)c2ccccc2)P(=O)(O)O)cc1` it is 7.74.
For the molecule `COc1ccc([C@H](N[C@@H](C)c2ccccc2)P(=O)(O)O)cc1`, the negative logarithm of the IC50 (pIC50) was 5.97.
